# Reference: patent US7737166B2, “Antifungal bicyclic hetero ring compounds” (Daiichi Sankyo Company, Limited, priority 2005, dated 2010)
# Key:
# Test in all cases: Antifungal activity (GI80), growth inhibition in YPD20 medium by absorbance at 600 nm
# Type in all cases: cell-based
# [1] = tested on: C. glabrata ATCC48435; settings: 37° C., absorbance 600 nm; for IC80: Nakaseomyces glabratus, ATCC48435, minimum concentration for at least 80% cell growth inhibition, read-out: GI80 (μg/ml) C. glabrata ATCC48435; for GI80 (μg/ml) C. glabrata ATCC48435: minimum concentration for at least 80% cell growth inhibition
# Procedure: (§1) The antifungal activity of the compounds of the invention was determined according to the method mentioned below.
# (§2) An YPD20 medium (1% yeast extract, 2% peptone, 20% glucose) was used,
# (§3) (2) Preparation of Cell Liquid for Inoculation:
# (§4) Cells incubated overnight with Sabouraud dextrose agar at 30° C. were suspended in 0.1% Tween 80-added saline, and then added to a concentrated medium (1.33% yeast extract, 2.67% peptone, 13.33% glucose) so that the final cell concentration could be 5×10^3 cells/ml, thereby preparing a cell liquid for inoculation.
# (§5) (3) Production of Chemical Dilution Plate:
# (§6) A metered sample was dissolved in dimethyl sulfoxide, and a 2-fold dilution series was prepared using dimethyl sulfoxide. A chemical dilution of 2 μl each was added to a flat-bottom 96-well plate with 40% glucose (48 μl) put in each well, thereby producing a chemical dilution plate.
# (§7) (4) Inoculation and Cultivation of Cell Liquid:
# (§8) The cell liquid (150 μl) prepared in (2) was added to the chemical dilution plate produced in (3), followed by aerobic static cultivation at 37° C.
# (§9) (5) Determination of Antifungal Activity (GI80 Value):
# (§10) After cultivation for […], the plate was stirred, and its absorbance (600 nm) was measured. Based on the absorbance as the index, the minimum chemical concentration for at least 80% cell growth inhibition relative to the cell growth in the chemical-free well was computed as a GI80 value.
# [2] = tested on: C. albicans ATCC MYA-573; settings: minimum concentration for at least 80% cell growth inhibition, 37° C., absorbance 600 nm; for IC80: Candida albicans, read-out: GI80 (μg/ml) C. albicans ATCC MYA-573
# Procedure: as §1, §2, §3, §4, §5, §6, §7, §8, §9, §10
# [3] = tested on: C. albicans ATCC90028; settings: 37° C., absorbance 600 nm; for IC80: Candida albicans, ATCC90028, minimum concentration for at least 80% cell growth inhibition, read-out: GI80 (μg/ml) C. albicans ATCC90028; for GI80 (μg/ml) C. albicans ATCC90028: minimum concentration for at least 80% cell growth inhibition
# Procedure: as §1, §2, §3, §4, §5, §6, §7, §8, §9, §10
SMILES,IC80 [1] [µg/mL],IC80 [2] [µg/mL],IC80 [3] [µg/mL],GI80 (μg/ml) C. glabrata ATCC48435 [1] [µg/mL],GI80 (μg/ml) C. albicans ATCC MYA-573 [2] [µg/mL],GI80 (μg/ml) C. albicans ATCC90028 [3] [µg/mL]
"Cc1c(-c2ccccc2)c(N2CC[C@H](N(C)C)C2)c2oc(Cc3ccco3)nc2c1C#N [Example 122, 7-[(3S)-3-(Dimethylamino)pyrrolidin-1-yl]-2-(2-furylmethyl)-5-methyl-6-phenyl-1,3-benzoxazole-4-carbonitrile]",0.125,0.5,0.5,–,–,–
"CN[C@H]1CCN(c2c(-c3cccs3)c(C)c(C#N)c3nc(C(=O)N(C)C)oc23)C1 [Example 145, 4-Cyano-N,N,5-trimethyl-7-[(3S)-3-(methylamino)pyrrolidin-1-yl]-6-(thiophen-2-yl)-1,3-benzoxazole-2-carboxamide]",0.125,0.5,0.5,–,–,–
"Cc1c(-c2cc(F)cc(F)c2)c(N2CC[C@H](N(C)C)C2)c2oc(C3CC3)nc2c1C#N [Example 82, 2-Cyclopropyl-6-(3,5-difluorophenyl)-7-[(3S)-3-(dimethylamino)pyrrolidin-1-yl]-5-methyl-1,3-benzoxazole-4-carbonitrile]",0.032,0.125,0.063,–,–,–
"Cc1c(-c2ccccc2)c(N2CC[C@H](N(C)C)C2)c2oc(N3CC(C(=O)O)C3)nc2c1C#N [Example 67, 1-{4-Cyano-7-[(3S)-3-(dimethylamino)pyrrolidin-1-yl]-5-methyl-6-phenyl-1,3-benzoxazol-2-yl}-azetidine-3-carboxylic acid]",0.25,> 4,> 4,–,–,–
"Cc1c(-c2ccccc2)c(N2CC[C@H](N(C)C)C2)c2oc(N(C)Cc3ncn[nH]3)nc2c1C#N [Example 72, 7-[(3S)-3-(Dimethylamino)pyrrolidin-1-yl]-5-methyl-2-[methyl(1H-1,2,4-triazol-5-ylmethyl)amino]-6-phenyl-1,3-benzoxazole-4-carbonitrile]",0.125,0.5,0.5,–,–,–
"Cc1c(-c2ccccc2)c(N2CC[C@H](N(C)C)C2)c2oc([C@@H]3C[C@H]3C(=O)N(C)C)nc2c1C#N (relative stereo) [Example 135, (1R*,2R*)-2-[4-Cyano-7-((S)-3-dimethylamino-pyrrolidinyl)-5-methyl-6-phenyl-benzoxazol-2-yl]-cyclopropanecarbonyldimethylamide]",–,–,–,0.063,0.125,0.125
"Cc1c(-c2ccccc2)c(N2CC[C@H](N(C)C)C2)c2oc(C3CCC3)nc2c1C#N [Example 106, 2-Cyclobutyl-7-[(3S)-3-(dimethylamino)pyrrolidin-1-yl]-5-methyl-6-phenyl-1,3-benzoxazole-4-carbonitrile]",< 0.016,0.125,0.063,–,–,–
"Cc1c(-c2ccccc2)c(N2CC[C@H](N(C)C)C2)c2oc(N(C)C(C)(C)C)nc2c1C#N [Example 62, 2-(N-tert-Butyl-N-methylamino)-7-[(3S)-3-(dimethylamino)pyrrolidin-1-yl]-5-methyl-6-phenyl-1,3-benzoxazole-4-carbonitrile]",0.032,0.063,0.063,–,–,–
CNC[C@H]1CCN1c1c(-c2ccccc2)c(C)c(C#N)c2nc(C(=O)N(C)C)oc12 [Example 155],–,–,–,0.125,2,0.5
Cc1c(-c2ccccc2)c(N2CC[C@H](N(C)C)C2)c2oc(N3CCCC3=O)nc2c1C#N [Example 129],–,–,–,0.063,0.5,0.25
"CN[C@H]1CCN(c2c(-c3ccccc3)c(CF)c(C#N)c3nc(C4CC4)oc23)C1 [Example 140, 2-Cyclopropyl-5-fluoromethyl-7-[(3S)-3-(methylamino)pyrrolidin-1-yl]-6-phenyl-1,3-benzoxazole-4-carbonitrile]",0.125,0.5,0.5,–,–,–
"COc1cccc(-c2c(C)c(C#N)c3nc(C4CC4)oc3c2N2CC[C@H](N(C)C)C2)c1 [Example 144-11, 2-Cyclopropyl-7-[(3S)-3-(dimethylamino)pyrrolidin-1-yl]-6-(3-methoxyphenyl)-5-methyl-1,3-benzoxazole-4-carbonitrile]",0.125,0.5,0.25,–,–,–
